Tests used:
DHFR (Rv2763c) = DHFR (Rv2763c) (Mycobacterium tuberculosis, UniProt P9WNX1); format: binding; settings: melting curve, M. tuberculosis lysate; Tm of DHFR without P218 is 57° C.
Rv0289/EspG3 = Rv0289/EspG3 (Mycobacterium tuberculosis, UniProt P9WJC7)
Rv0289/EspG3, sequence (P9WJC7 whole entry): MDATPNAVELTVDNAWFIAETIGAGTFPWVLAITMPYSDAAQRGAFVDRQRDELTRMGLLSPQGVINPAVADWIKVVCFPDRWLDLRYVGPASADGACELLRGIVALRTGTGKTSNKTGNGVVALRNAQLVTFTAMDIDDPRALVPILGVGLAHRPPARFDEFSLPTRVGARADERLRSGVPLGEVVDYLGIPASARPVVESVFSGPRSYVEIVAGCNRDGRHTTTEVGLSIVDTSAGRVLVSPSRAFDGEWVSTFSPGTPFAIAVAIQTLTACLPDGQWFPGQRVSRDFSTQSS

DHFR (Rv2763c), sequence (P9WNX1 whole entry): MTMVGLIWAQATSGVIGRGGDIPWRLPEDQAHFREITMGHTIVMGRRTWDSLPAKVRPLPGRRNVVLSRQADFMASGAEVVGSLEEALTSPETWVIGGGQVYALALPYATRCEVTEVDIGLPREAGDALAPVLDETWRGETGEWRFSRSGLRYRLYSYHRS

In the case of `CCc1nc(N)nc(N)c1OCCCOc1ccccc1CCC(=O)O` [P218], the “temperature at the inflection point (Tm) of DHFR in the presence of P218” value (DHFR (Rv2763c)) is reported as 60.9 °C and the “difference in the Tm values in the presence and absence of compound” value (Rv0289/EspG3) is reported as “no difference”.

— US10978281B2, “Method to obtain unbiased identification of interaction of test compounds with the proteome” (Institute for Systems Biology, priority 2015, dated 2021)
